The experiment has as its system Bdnf, Arc, Egr-1, Egr-2, Egr-3 mRNA in mouse PFC, HIP, mPFC. The experiment is described as follows: In vivo gene expression. Conditions: PFC and HIP, 30 min after 10 mg/kg i.p.

As to `CN(C)CCc1c[nH]c2ccccc12` [DMT, dimethyltryptamine], the “Expression of Egr-2 mRNA” value is “significantly elevated expression”.

The values above are taken from PMC12916285 (Molecular Psychiatry, 2025).
